Among the targets are hNatB (Homo sapiens, UniProt P61599); hNatE (Homo sapiens, UniProt Q9GZZ1); PCAF (Homo sapiens, UniProt Q92831).
For another assay, the target named is T1, hMOF (Homo sapiens, UniProt Q9H7Z6).
T1 sequence (Q9H7Z6 1-458): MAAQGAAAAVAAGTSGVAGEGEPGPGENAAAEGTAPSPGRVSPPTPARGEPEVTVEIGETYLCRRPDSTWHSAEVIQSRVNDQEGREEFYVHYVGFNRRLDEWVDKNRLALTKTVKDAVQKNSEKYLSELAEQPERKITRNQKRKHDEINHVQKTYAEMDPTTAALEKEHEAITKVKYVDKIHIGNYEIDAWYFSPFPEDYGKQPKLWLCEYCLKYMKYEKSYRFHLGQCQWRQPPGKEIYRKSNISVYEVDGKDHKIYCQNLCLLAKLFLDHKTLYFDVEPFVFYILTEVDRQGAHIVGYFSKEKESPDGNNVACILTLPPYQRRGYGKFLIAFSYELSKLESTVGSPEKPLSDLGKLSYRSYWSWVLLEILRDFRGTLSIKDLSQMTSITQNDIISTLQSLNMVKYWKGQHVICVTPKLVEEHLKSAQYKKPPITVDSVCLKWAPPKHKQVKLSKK
Put plainly: Selectivity assay, hMOF. Type of assay: biochemical.

In assay [1] the test system is SpNatC. To be noted: from no inhibition at 10 μM.
Assay [2] addresses SpNatC (Schizosaccharomyces pombe, UniProt O74311). To be noted: at 10 μM; n = 3.
The target of another assay is NatD (Homo sapiens, UniProt Q86UY6). Put plainly: biochemical.
In assay [3] the target is T2, hNatD (Homo sapiens, UniProt Q86UY6). To be noted: radioactive assay; acetyl versus propionyl linker, tripeptide SGR.
The next assay deals with T3, hNatA (Homo sapiens, UniProt P41227).
T3 sequence (P41227 1-160 limits assumed): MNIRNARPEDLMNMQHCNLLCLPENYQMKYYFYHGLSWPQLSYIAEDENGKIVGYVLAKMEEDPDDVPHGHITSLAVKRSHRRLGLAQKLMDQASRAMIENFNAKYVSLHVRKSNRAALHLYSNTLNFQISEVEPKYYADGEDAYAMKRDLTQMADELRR
T3 sequence (Q9BXJ9 1-866 partner): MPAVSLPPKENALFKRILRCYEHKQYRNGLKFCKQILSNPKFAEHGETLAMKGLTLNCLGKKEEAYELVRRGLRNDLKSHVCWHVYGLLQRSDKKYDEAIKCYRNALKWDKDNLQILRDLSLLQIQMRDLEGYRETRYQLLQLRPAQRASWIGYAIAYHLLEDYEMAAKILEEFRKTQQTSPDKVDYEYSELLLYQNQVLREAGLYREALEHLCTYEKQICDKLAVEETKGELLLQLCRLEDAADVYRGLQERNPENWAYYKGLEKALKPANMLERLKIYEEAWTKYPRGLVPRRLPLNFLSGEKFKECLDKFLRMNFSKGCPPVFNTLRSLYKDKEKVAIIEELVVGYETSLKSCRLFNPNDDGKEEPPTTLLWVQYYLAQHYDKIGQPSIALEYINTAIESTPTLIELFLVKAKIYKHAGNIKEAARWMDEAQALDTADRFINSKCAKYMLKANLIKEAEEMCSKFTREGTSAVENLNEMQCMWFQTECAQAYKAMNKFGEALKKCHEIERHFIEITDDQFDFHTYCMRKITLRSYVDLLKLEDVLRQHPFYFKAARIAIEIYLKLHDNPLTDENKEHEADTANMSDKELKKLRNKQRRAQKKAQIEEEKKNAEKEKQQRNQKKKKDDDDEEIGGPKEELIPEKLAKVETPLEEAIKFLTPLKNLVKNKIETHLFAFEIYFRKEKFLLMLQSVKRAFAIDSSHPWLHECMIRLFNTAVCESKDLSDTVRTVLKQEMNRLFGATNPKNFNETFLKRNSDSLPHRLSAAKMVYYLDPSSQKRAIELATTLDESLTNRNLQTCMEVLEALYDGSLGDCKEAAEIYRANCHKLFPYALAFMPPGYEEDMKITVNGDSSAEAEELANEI
Put plainly: Selectivity assay, NatA. Type of assay: biochemical.

In assay [4] the target is T2, hNatD. Put plainly: biochemical.

SMILES strings stand for the structures. Bounds are passed on as bounds.

hNatE, sequence (Q9GZZ1 whole entry, one chain of several): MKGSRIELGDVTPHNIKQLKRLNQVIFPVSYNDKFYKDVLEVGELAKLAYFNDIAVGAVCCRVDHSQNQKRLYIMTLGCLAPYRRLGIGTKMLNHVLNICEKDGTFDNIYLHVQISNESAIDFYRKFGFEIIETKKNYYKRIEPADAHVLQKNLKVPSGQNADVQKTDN
hNatB, sequence (P61599 1-163 limits assumed): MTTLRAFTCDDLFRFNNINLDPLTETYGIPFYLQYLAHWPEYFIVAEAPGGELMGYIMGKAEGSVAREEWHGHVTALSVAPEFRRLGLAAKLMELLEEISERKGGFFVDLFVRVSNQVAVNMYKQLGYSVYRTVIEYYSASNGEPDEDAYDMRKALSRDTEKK
hNatB, sequence (Q14CX7 whole entry partner): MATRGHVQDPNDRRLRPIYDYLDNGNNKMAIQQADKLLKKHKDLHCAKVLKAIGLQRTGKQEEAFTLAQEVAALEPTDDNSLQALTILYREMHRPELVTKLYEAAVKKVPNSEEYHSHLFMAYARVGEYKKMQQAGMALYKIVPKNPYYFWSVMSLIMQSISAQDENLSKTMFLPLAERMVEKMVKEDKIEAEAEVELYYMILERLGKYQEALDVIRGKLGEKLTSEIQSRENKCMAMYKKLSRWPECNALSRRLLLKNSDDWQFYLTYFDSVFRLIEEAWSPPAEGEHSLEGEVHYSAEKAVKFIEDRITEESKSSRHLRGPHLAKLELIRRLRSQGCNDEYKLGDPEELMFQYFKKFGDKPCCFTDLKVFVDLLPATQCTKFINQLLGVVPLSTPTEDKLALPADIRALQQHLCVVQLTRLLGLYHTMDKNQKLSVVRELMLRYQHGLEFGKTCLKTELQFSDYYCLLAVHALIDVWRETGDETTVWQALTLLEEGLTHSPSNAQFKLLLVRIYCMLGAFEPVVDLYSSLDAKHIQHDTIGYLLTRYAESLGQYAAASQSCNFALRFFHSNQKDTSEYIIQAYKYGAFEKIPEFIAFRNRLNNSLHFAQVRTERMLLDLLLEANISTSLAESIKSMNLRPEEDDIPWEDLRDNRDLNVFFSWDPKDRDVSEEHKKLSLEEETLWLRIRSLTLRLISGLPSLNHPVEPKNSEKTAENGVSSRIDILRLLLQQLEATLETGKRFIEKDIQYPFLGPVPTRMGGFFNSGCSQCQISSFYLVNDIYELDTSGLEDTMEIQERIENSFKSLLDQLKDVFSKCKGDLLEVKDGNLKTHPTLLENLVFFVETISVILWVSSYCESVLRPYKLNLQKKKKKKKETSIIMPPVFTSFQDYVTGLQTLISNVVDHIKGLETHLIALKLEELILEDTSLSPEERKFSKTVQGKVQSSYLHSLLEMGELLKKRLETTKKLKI
PCAF, sequence (Q92831 whole entry): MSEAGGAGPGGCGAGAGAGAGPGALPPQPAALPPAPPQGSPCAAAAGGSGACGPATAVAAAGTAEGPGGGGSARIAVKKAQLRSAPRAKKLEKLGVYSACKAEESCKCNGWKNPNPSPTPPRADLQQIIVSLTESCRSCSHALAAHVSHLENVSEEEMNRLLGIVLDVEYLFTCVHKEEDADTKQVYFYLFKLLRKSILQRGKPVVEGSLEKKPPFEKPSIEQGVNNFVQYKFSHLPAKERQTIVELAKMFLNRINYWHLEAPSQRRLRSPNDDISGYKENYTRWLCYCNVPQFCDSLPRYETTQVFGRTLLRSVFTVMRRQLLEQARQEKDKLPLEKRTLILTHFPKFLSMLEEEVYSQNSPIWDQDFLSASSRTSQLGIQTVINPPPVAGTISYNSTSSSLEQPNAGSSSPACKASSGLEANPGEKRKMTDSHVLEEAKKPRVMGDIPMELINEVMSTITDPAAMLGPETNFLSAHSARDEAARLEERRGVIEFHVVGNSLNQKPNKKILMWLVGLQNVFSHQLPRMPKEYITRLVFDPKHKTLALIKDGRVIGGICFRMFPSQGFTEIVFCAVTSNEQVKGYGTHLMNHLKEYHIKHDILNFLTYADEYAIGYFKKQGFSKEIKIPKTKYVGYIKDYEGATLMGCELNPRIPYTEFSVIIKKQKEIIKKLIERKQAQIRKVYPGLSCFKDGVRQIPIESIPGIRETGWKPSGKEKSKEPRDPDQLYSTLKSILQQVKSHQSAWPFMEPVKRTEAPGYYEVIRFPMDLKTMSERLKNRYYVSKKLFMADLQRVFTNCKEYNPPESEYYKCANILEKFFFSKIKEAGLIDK
SpNatC (Schizosaccharomyces pombe, UniProt O74311), sequence (O74311 whole entry): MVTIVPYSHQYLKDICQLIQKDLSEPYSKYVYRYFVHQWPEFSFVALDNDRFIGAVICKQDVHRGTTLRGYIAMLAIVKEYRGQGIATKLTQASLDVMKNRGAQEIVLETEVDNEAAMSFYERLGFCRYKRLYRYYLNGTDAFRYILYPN

As usually defined, the IC50 is the midpoint of a concentration-inhibition curve. On to `CC(C)(COP(=O)(O)OP(=O)(O)OC[C@H]1O[C@@H](n2cnc3c(N)ncnc32)[C@H](O)[C@@H]1OP(=O)(O)O)[C@@H](O)C(=O)NCCC(=O)NCCSCC(=O)N[C@@H](CO)C(=O)NCC(=O)N[C@@H](CCCNC(=N)N)C(N)=O` [Compound 7, CoA-C2-SGR], for which, on hNatB (at 10 μM, n = 3), the “inhibition towards NatB” value is listed as “did not show any inhibition”. For the same molecule, at hNatB (from no inhibition at 10 μM), the “selectivity for NatD over NatB” value is “over 10,000 fold”. Also, the “inhibition towards NatE” value on hNatE (at 10 μM, n = 3) was “did not show any inhibition”. Also, the “selectivity for NatD over NatE” value on hNatE (from no inhibition at 10 μM) is given as “over 10,000 fold”. Moreover, the IC50 was > 100 nM against hMOF, 29 ± 5.6 nM at NatD, > 100 nM on hNatA and 16 ± 4.9 nM on hNatD [4]. Moreover, the “selectivity for NatD over NatC” value in the assay on SpNatC [1] was “over 10,000 fold”. Further, on SpNatC [2], the “inhibition towards NatC” value is reported as “did not show any inhibition”. For the same molecule, the “fold more potent than 8” value at hNatD [3] is 2 fold. Further, the “inhibition towards PCAF” value against PCAF (at 10 μM, n = 3) is recorded as “did not show any inhibition”. On PCAF (from no inhibition at 10 μM), the “selectivity for NatD over PCAF” value is “over 10,000 fold”.

The values above are taken from paper PMC8392721 (Journal of medicinal chemistry, 2021).
